Assay results: patent US11186603B2, “Heparan sulfate glycomimetic compounds and their pharmaceutical and cosmeceutical uses” (VICTORIA LINK LIMITED, priority 2017, dated 2021)
Where “and” joins values, the source holds several entries; their conditions need not be identical. Identical values can stand only once. Entries after “also recorded” stand apart in the source; their conditions may differ.

Tests used:
[1] = system: human dermal fibroblast cell line, CRL2071; assay: Production of hyaluronan (ELISA); type: cell-based; settings: liberated, 10 μM, 72 h
Method: (§1) Cells from the human dermal fibroblast cell line, CRL2071 (passages 12-14), obtained from normal breast skin of a person, were allowed to attach for 6-8 hours before the addition of the test compounds. After 72 h of exposure to the test articles the media was removed, cells counted and the cell-associated fraction extracted. The media and cell-associated fraction were analysed for the concentration of hyaluronan using a Hyaluronan Detection Kit ELISA.
(§2) The test compounds, positive controls and no treatment media were added to the flasks (2.5 ml/flask) and cells were incubated for 72 h before removal of the supernatant. After removal of the supernatant, cell monolayers were trypsinsed with 2.5 ml of 0.025% trypsin/[…] in PBS to each flask. After cell detachment (7-10 min), 1 ml of the cell/trypsin mixture was added to a 20 ml counting vial containing 9 ml of normal saline. The cells were quantitated with a Coulter Counter Z2.
(§3) In some treatments cells were found floating. They were collected, counted and subjected to viability testing using 1% trypan blue staining. The remaining 1.5 ml of trypsin/cell mixture was sonicated with a Branson tip-probed sonicator for 1 min, setting 6 before centrifugation at 10,000 rpm for 10 min. The supernatant was removed and used in the hyaluronan ELISA for the quantitation of cell-associated hyaluronan.

[2] = molecular target: T1, Recombinant human heparanase (Homo sapiens, UniProt Q9Y251); assay: Heparanase inhibition colorimetric assay (fondaparinux / WST-1); type: biochemical; settings: FIGS. 1 to 3; inhibitor 1 μM, 10 μM and dose response
T1 construct: made in house; host or cells: insect cells
T1 sequence (Q9Y251 158-543 limits assumed): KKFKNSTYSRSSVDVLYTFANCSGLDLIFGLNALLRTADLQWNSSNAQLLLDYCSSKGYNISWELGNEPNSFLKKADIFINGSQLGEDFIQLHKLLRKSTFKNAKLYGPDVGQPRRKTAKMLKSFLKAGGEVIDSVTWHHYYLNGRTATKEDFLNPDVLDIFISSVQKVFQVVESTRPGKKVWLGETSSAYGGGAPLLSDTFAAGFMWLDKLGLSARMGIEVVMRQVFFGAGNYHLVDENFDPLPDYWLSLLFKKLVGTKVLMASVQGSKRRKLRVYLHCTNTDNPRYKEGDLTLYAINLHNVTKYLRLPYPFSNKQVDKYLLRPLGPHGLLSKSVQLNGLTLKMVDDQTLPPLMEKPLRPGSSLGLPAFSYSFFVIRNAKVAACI
T1 sequence (Q9Y251 36-109 limits assumed): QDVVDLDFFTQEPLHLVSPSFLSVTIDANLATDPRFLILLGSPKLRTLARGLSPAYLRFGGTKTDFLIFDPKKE
Method: The assay methodology used is described in Hammond, E., et al., Development of a colorimetric assay for heparanase activity suitable for kinetic analysis and inhibitor screening, Anal. Biochem. 2010, 396 (1), 112-116.
Reagents were obtained from Sigma-Aldrich. Assays were carried out in 96-well microplates (Costar 9018 EIA/RIA, Corning) that had been pretreated with a solution of 4% bovine serum albumin (BSA) in phosphate-buffered saline containing 0.05% Tween 20 (PBST) for 2 h at 37° C. The plates were then washed three times with PBST and shaken dry. Pretreated plates were stored at 4° C. for up to 2 weeks before use.
Recombinant human heparanase was expressed in insect cells and then purified from the cell medium into which it had been secreted. […] Fractions containing pure heparanase, determined by silver staining of sodium dodecyl sulfate-polyacrylamide gel electrophoresis (SDS-PAGE), were pooled, dialyzed into 10 mM sodium phosphate (pH 7.0), concentrated using Centriplus concentrating devices (Millipore), and stored at −80° C. until use.
Assay solutions (100 μl) were composed of 40 mM sodium acetate buffer (pH 5.0) and […] fondaparinux (GlaxoSmithKline) with or without inhibitor. […] The plates were resealed with adhesive tape and developed at 60° C. for 60 min, and the absorbance was measured at 584 nm (FLUOstar, BMG Labtech).

[3] = system: human dermal fibroblast cell line, CRL2071; assay: Production of collagen type I (ELISA); type: cell-based
Method: as §1, with “collagen type I” for “hyaluronan”, “Chondrex Human type I Collagen” for “Hyaluronan”, “ELISA (Cat #6021).” for “ELISA.”
After complete dissolution the solutions were sterile filtered through a […] syringe filter and kept at 4° C. until use. Prior to each experiment dilutions were freshly prepared by diluting to 100 nM, 1 μM or 10 μM in cell-specific media.
as §2
as §3, with “collagen” for “hyaluronan”, “collagen.” for “hyaluronan.”

[4] = system: bacterial collagenase type II from Clostridium histolyticum; assay: Colorimetric gelatinolytic assay, collagenase inhibition; type: biochemical; settings: 10 μM
Method: A colorimetric gelatinolytic assay was used to evaluate the effects of heparanase inhibitors on the activity of bacterial collagenase type II from Clostridium histolyticum. The reaction mixture was prepared in a total volume of 20 μl for each well of the microplate/inhibition assay. First, 1 ul of 100 ng of bacterial collagenase and 2 μl of the heparanase inhibitor or positive control (50 μg/ml doxycycline) were added into each well of a 96-well plate and incubated at 37° C. for 60 min. On completion of the incubation, 10 μg of gelatin and 2 μl of 10× collagenase buffer (500 mM Tris-HCl, 100 mM CaCl2, and 1.5 M NaCl) were added to distilled water to obtain the final volume of 20 μl. The plate was then incubated at 37° C. for 4 h. Subsequently, the amount of gelatin remaining was quantified by the addition of 20 μl of 2.5% w/v of Coomassie Brilliant blue R-250 (Sigma-Aldrich) dissolved in 40% methanol/10% acetic acid, followed by shaking on an orbital shaker for 5 min. The supernatant was carefully removed by pipette to ensure that the gelatin pellet was not disturbed and 50 μl of dimethyl sulfoxide was added to dissolve the pellet. The plate was incubated at room temperature for 15 min followed by shaking on an orbital shaker for 5 min. The plate was then read in a Versa max microplate reader at 600 nm.

O=C(CCOCC(COCCC(=O)NCCCCCCOC1OC(COS(=O)(=O)[O-])C(OS(=O)(=O)[O-])C(OS(=O)(=O)[O-])C1OS(=O)(=O)[O-])(COCCC(=O)NCCCCCCOC1OC(COS(=O)(=O)[O-])C(OS(=O)(=O)[O-])C(OS(=O)(=O)[O-])C1OS(=O)(=O)[O-])COCCC(=O)NCCCCCCOC1OC(COS(=O)(=O)[O-])C(OS(=O)(=O)[O-])C(OS(=O)(=O)[O-])C1OS(=O)(=O)[O-])NCCCCCCOC1OC(COS(=O)(=O)[O-])C(OS(=O)(=O)[O-])C(OS(=O)(=O)[O-])C1OS(=O)(=O)[O-].[Na+].[Na+].[Na+].[Na+].[Na+].[Na+].[Na+].[Na+].[Na+].[Na+].[Na+].[Na+].[Na+].[Na+].[Na+].[Na+] (stereo not shown) [Compound 17b]
Hyaluronan as % of No Treatment Control (Mean ± SD) [1]: 167 ± 36p = 0.233% | inhibition of heparanase (in words) [2]: particularly good inhibitors; also recorded: very good inhibition of heparanase | Collagen as % of No Treatment Control (Mean ± SD), Cell-associated [3]: 1,155 ± 25% and 2,371 ± 49% and 2,371% | Collagenase inhibition as a % of the "No Treatment" control (Mean ± SD) [4]: 74 ± 2%
